Source: patent EP1061957B1, “MANGANESE (II) CHELATES WITH HIGH RELAXIVITY IN SERUM” (BRACCO S.p.A., priority 1998, dated 1999)
Read-outs that look alike come from different tables or passages of the source.

Key:
[1] = Relaxivity in human serum reconstituted from Seronorm Human; type: physicochemical; details: human serum reconstituted from lyophilized Seronorm Human (Nycomed Pharma)
Protocol: The relaxivity of the compounds of the invention was measured both in saline solution and in human serum, reconstituted from Seronorm^(R) Human (Nycomed Pharma), lyophilized human serum.

[2] = Thermodynamic stability constant in aqueous solution, potentiometric method; type: physicochemical; details: 20°C, 0.1 M KCl aqueous solution
mouse [3] = assay: Acute toxicity, DL50 in the mouse; type: in vivo; details: i.v.
mouse [4] = details: literature value, cited from earlier work
[5] = thermodynamic stability constant; from Smith and Martell, Critical Stability Constants, Vol. 6; cited from earlier work

For “Manganese complex(II) of N,N'-1,2-ethanediylbis[N-(carboxymethyl)-O-(phenylmethyl) -D,L-serine] salified with 1-deoxy-1-(methyl amino) -D-glucitol (1:2) [EXAMPLE 1]”, the “Relaxivity Seronorm Human r1” value [1] was 36 ^(3) mM^-1s^-1, the “Log KML” value [2] was 13.8 ± 0.1 and the DL50 (mouse [3]) was 4.5 mmol/kg.
For `[Cl][Mn][Cl]` [MnCl2], the DL50 (mouse [4]; i.v.) is given as 0.25 - 0.30 ^(1) mmol/kg and the “Relaxivity Seronorm Human r1” value [1] is given as 53 ^(3) mM^-1s^-1.
In the case of Mn-EDTA, the DL50 (mouse [4]; i.p.) is given as 5.9 ^(2) mmol/kg, the “Relaxivity Seronorm Human r1” value [1] is given as 10 ^(3) mM^-1s^-1 and the “Log KML” value [5] is given as 13.88 ^(2).
